{"source": "patent US20260253701A1", "about": "“EEG BIOMARKERS FOR ALPHA5 PAM DOSAGE DETERMINATION AND THERAPEUTIC MONITORING” (priority 2022, published 2026)", "key": {"[1]": {"molecular_target": "T1, α5 subunit receptors (Homo sapiens, UniProt P18507+P31644)", "conditions": "3 μM; higher levels more strongly target α1, α2, & α3 subunit receptors; cited from earlier work"}, "[2]": {"tested_on": "chronically stressed mice", "conditions": "mouse, in vivo; cited from earlier work"}, "[3]": {"molecular_target": "T1, α5 subunit receptors", "assay": "whole-cell voltage-clamp recordings of tonic inhibition current in human cortical L2/3 Pyr neurons", "assay_type": "cell-based", "set-up": "Neocortical tissue resected during tumor resection and anterior temporal lobectomy; from tissue; host or cells: human neocortical slices (resected frontal/temporal lobe tissue), L2/3 pyramidal neurons", "text": "Electrophysiology Data. We used whole-cell voltage-clamp recordings of baseline tonic inhibition current and tonic inhibition current during exposure to α5-PAM in human cortical L2/3 Pyr neurons (10 cells: 9 cells from 3 male subjects, 1 cell from 1 subject) from patients undergoing a standard anterior temporal lobectomy or tumor resection from the frontal or temporal lobe. Written informed consent was obtained from all participants, in accordance with the Declaration of Helsinki and the University Health Network Research Ethics board.\nThe data was collected using surgery resection, solutions, tissue preparation, and recording equipment described in Chameh et al., 2021 Nature Communications, 12(1), 2497 and Yao et al., 2022 Cell Reports, 38(2). Neocortical tissue resected during tumor resection and anterior temporal lobectomy was immediately submerged in ice-cold (~4° C.) cutting solution and transferred to a recording chamber within 20 minutes.\nFor recordings, slices were transferred to a recording chamber mounted on a fixed-stage upright microscope (Axioskop 2 FS MOT; Carl Zeiss, Germany). Slices were continually perfused at 4 ml/min with standard aCSF at 32-34° C. Whole-cell patch-clamp recordings were obtained using a Multiclamp 700 A amplifier, Axopatch 200B amplifier, and pClamp 9.2 and pClamp 10.6 data acquisition software (Axon instruments, Molecular Devices, USA). Subsequently, electrical signals were digitized at 20 kHz using a 1320X digitizer. For voltage-clamp recordings of tonic current, low-resistance patch pipettes (2-4 MΩ) were filled with a CsCl-based solution containing (in mM) 140 CsCl, 10 EGTA, 10 Hepes, 2 MgCl2, 2 Na2ATP, 0.3 GTP, and 5 QX314 adjusted to pH 7.3 with CsOH. The junction potential was calculated to be 4.3 mV and the holding potential was-74.3 mV after junction potential correction. In this configuration, 5 μM GABA, 25 μM AP5, 10 μM CNQX, and 10 μM CGP-35348 were first applied to generate larger GABA-dependent currents and assess baseline tonic inhibition currents while also blocking AMPA, NMDA, and GABAB mediated currents. […]"}}, "data": [{"smiles": "C#Cc1ccc2c(c1)C(c1ccccc1F)=N[C@H](C)c1c(C(=O)N(C)C)ncn1-2", "note": "[α5-PAM, GL-II-73]", "values": [{"measurement": "subunit selectivity", "setting": "[1]", "value": "selectively targeting α5 subunit receptors"}, {"measurement": "effect in chronically stressed mice", "setting": "[2]", "value": "pro-cognitive effects"}, {"measurement": "mean amplitude of tonic inhibitory current relative to endogenous current in picrotoxin condition", "setting": "[3]; 3 μM with 5 μM GABA, ± standard error of the mean, n=10 cells, baseline 65.86±10.28", "value": "95.28±14.52", "unit": "pA"}, {"measurement": "tonic inhibition current magnitude", "setting": "[3]; therapeutically relevant dose (3 μM) of α5-PAM in addition to GABA, mean±standard deviation, GABA alone −65.9±30.8", "value": "−95.3±43.6", "unit": "pA"}, {"measurement": "increase in current magnitude", "setting": "[3]; α5-PAM in addition to GABA vs GABA alone", "value": 52, "unit": "%"}]}]}
